# Read-outs that look alike come from different tables or passages of the source. *1 amine or outer side, *2 acyl side, *3 side chain or, on linkers, in order; H or OH if unused. Where a SMILES comes first, the peptide text is derived from it. Bridges are numbered along the chain shown (N, C = ends). [ ]: non-standard residue; d: D form. The star is where a group is joined. ξ: configuration not given here. Orn(4R-OH,5R-OH) = O=C([C@H](C[C@@H](O)[C@@H](O)N[*:3])N[*:1])[*:2]; hTyr(3S-OH,4S-OH) = N[C@H](C(=O)O)[C@H](O)[C@@H](O)c1ccc(O)cc1; ξOrn(4,5-diOH) = O=C(C(CC(O)C(O)N[*:3])N[*:1])[*:2]; ξhTyr(βξ-OH,γξ-OH) = NC(C(=O)O)C(O)C(O)c1ccc(O)cc1; Pro(3S-OH,4S-Me) = C[C@H]1CN[C@H](C(=O)O)[C@H]1O; Linoleoyl = CCCCC/C=C\C/C=C\CCCCCCCC(=O)*; ξPro(3ξ-OH,4ξ-Me) = CC1CNC(C(=O)O)C1O; Hyp = O=C(O)[CH]1C[CH](O)CN1; X1 = CCCCCC=CCC=CCCCCCCCC(=O)*
# What was measured:
# [1] = electrometric titration; format: physicochemical; settings: 66% aqueous dimethylformamide, initial pH 6.9
# [2] = test system: Candida albicans; test: disc-diffusion antifungal test, Candida albicans; format: cell-based; settings: Table II, 6-mm pads, agar plates
# Experimental: (§1) Antibiotic A-22082 is a useful antifungal agent. […] Antifungal activity was measured by the conventional disc-diffusion method (6-mm pads were dipped in solutions containing antibiotic A-22082; pads were placed on agar plates seeded with test organism). Table II summarizes the minimal inhibitory concentration (MIC) per disc at which antibiotic A-22082 inhibited representative organisms.
# [3] = test system: Epidermatophyton floccosum; test: disc-diffusion test, Epidermatophyton floccosum; format: cell-based; settings: Table III; 1 isolate
# Experimental: as §1
# (§2) Antibiotic A-22082 is very active in in vitro disc-diffusion tests against dermatophytes.
# [4] = test system: Trichophyton mentagrophytes; test: disc-diffusion antifungal test, Trichophyton mentagrophytes; format: cell-based; settings: Table II, 6-mm pads, agar plates
# Experimental: as §1, §2
# [5] = test system: Philaphere jean salemi; test: disc-diffusion test, Philaphere jean salemi; format: cell-based; settings: Table III; 1 isolate
# Experimental: as §1, §2
# [6] = test system: Trichophyton rubrum; test: disc-diffusion test, Trichophyton rubrum; format: cell-based; settings: Table III; 1 isolate
# Experimental: as §1, §2
# [7] = test system: Trichophyton terrestre; test: disc-diffusion test, Trichophyton terrestre; format: cell-based; settings: Table III; 1 isolate
# Experimental: as §1, §2
# [8] = test system: dermatophytes; test: in vitro activity against dermatophytes; format: cell-based; settings: in words
# Experimental: as §1, §2
# [9] = test system: Keratinomyces ajellio; test: disc-diffusion test, Keratinomyces ajellio; format: cell-based; settings: Table III; 1 isolate
# Experimental: as §1, §2
# [10] = test system: Nannizzia incurvata; test: disc-diffusion test, Nannizzia incurvata; format: cell-based; settings: Table III; 1 isolate
# Experimental: as §1, §2
# [11] = solubility; format: physicochemical
# [12] = test system: Candida tropicalis; test: disc-diffusion antifungal test, Candida tropicalis; format: cell-based; settings: Table II, 6-mm pads, agar plates
# Experimental: as §1
# [13] = test system: Trichophyton gallinae; test: disc-diffusion test, Trichophyton gallinae; format: cell-based; settings: Table III; 1 isolate
# Experimental: as §1, §2
# [14] = test system: mice; test: acute toxicity in mice; format: in vivo
# Experimental: 3 times over 24 hours (a total of 600 mg./kg.).
# [15] = test system: Candida albicans; test: in vivo protection of Candida albicans-infected mice; settings: two doses
# Experimental: A measure of the protection afforded is the ED50 value [the effective dose in mg./kg. which protects 50 percent of the mice; see W. Wick et al., J. Bacteriol. 81, 233-235 (19610]. The ED50 values for antibiotic A-22082 against Candida albicans in mice were 30 mg./kg. (intraperitoneal administration) and 50 mg./kg. (subcutaneous administration).
# [16] = test system: Trichophyton quinckeanum; test: disc-diffusion test, Trichophyton quinckeanum; format: cell-based; settings: Table III; 1 isolate
# Experimental: as §1, §2
# [17] = test system: Trichophyton meginini; test: disc-diffusion test, Trichophyton meginini; format: cell-based; settings: Table III; 1 isolate
# Experimental: as §1, §2
# [18] = test system: Trichophyton schoenleinii; test: disc-diffusion test, Trichophyton schoenleinii; format: cell-based; settings: Table III; 1 isolate
# Experimental: as §1, §2
# [19] = test system: dermatophytes; settings: reported by F. Benz et al., Helv. Chim. Acta 57, 2459-2477 (1974); cited from earlier work
smiles,measurement,setting,value
"CCCCC/C=C\C/C=C\CCCCCCCC(=O)N[C@H]1C[C@@H](O)[C@@H](O)NC(=O)[C@@H]2[C@@H](O)[C@@H](C)CN2C(=O)[C@H]([C@@H](C)O)NC(=O)[C@H]([C@H](O)[C@@H](O)c2ccc(O)cc2)NC(=O)[C@@H]2C[C@@H](O)CN2C(=O)[C@H]([C@@H](C)O)NC1=O [antibiotic A-22082] (Linoleoyl-[Orn(4R-OH,5R-OH)]T[Hyp][hTyr(3S-OH,4S-OH)]T[Pro(3S-OH,4S-Me)]; lactam 1-C)",pKa value,[1],12.7
same,minimal inhibitory concentration (MIC) per disc,[2],0.625 mcg./disc
same,MIC,[3],1.25 mcg/disc
same,minimal inhibitory concentration (MIC) per disc,[4],0.078 mcg./disc
same,MIC,[5],> 1.25 mcg/disc
same,MIC,[6],< .0098 mcg/disc
same,MIC,[7],0.0195 mcg/disc
same,activity against dermatophytes,[8],very active
same,activity against dermatophytes,[8]; listed as A-22082,active against dermatophytes
same,MIC,[9],0.156 mcg/disc
same,MIC,[10],0.312 mcg/disc
same,solubility in nonpolar organic solvents,"[11]; diethyl ether, petroleum ether",insoluble
same,solubility in aqueous solutions,[11]; especially those having a pH greater than 7.0,soluble
same,solubility in organic solvents,"[11]; methanol, ethanol, dimethylformamide, dimethyl sulfoxide, ethyl acetate",soluble
same,minimal inhibitory concentration (MIC) per disc,[12],3.12 mcg./disc
same,MIC,[13],> 1.25 mcg/disc
same,signs of acute toxicity,"[14]; intraperitoneal, 100 mg./kg. twice per day for three days (total 600 mg./kg.)",no signs of acute toxicity
same,signs of acute toxicity,"[14]; ip, 200 mg./kg. 3 times over 24 hours (total 600 mg./kg.)",no signs of acute toxicity
same,signs of acute toxicity,"[14]; subcutaneous, 100 mg./kg. twice per day for three days (total 600 mg./kg.)",no signs of acute toxicity
same,ED50 (effective dose which protects 50 percent of the mice),[15]; intraperitoneal administration,30 mg/kg
same,ED50 (effective dose which protects 50 percent of the mice),[15]; subcutaneous administration,50 mg/kg
same,protection against C. albicans,[15]; Candida albicans-infected mice,protection against C. albicans was provided
same,MIC,[16],> 1.25 mcg/disc
same,MIC,[17],0.0195 mcg/disc
same,MIC,[18],0.0195 mcg/disc
"CCCCCC=CCC=CCCCCCCCC(=O)NC1CC(O)C(O)NC(=O)C2C(O)C(C)CN2C(=O)C(C(C)O)NC(=O)C(C(O)C(O)c2ccc(O)cc2)NC(=O)C2CC(O)CN2C(=O)C(C(C)O)NC1=O (stereo not drawn) [Echinocandin B] (X1-[ξOrn(4,5-diOH)]T[Hyp][ξhTyr(βξ-OH,γξ-OH)]T[ξPro(3ξ-OH,4ξ-Me)]; lactam 1-C; configuration not given here)",activity against dermatophytes,[19],inactive against dermatophytes

# From patent US4024246A, “Antibiotic A-22082 and process for production thereof” (Eli Lilly and Company, priority 1976, dated 1977)
